{"source": "patent US11639496B2", "about": "“Reducing fratricide of immune cells expressing NKG2D-based receptors” (CELYAD S.A, priority 2017, dated 2023)", "assay_type_in_all_cases": "cell-based, human", "key": {"[1]": {"test_system": "NKG2D (CD314)", "assay": "Flow cytometry of NKG2D (CD314) cell surface expression on NKR-2 T cells", "protocol": "(§1) (A) MFI of NKG2D expression on NKR-2 T cells treated or not with increasing concentrations of LY294002. Data shown are mean±SD of N=3 independent donors. (B) Transduced T cells were cultured in complete X-vivo (100 IU/ml IL-2) supplemented or not with increasing concentrations of LY294002 for expansion. T cells were analyzed 96 h after seeding for fold expansion relative to the initial cell seeding density. Data shown are mean±SD of N=3 independent donors. (C) Viability of cells after cryopreservation. NKR-2 T cells were produced in presence of increasing concentration of LY294002. After production, cells were harvested, washed, and formulate for cryopreservation. After cryopreservation, cells were thawed using a water bath and resuspended in Plasmalyte/Human Serum Albumin (HSA) 5%. Cells viability was directly assessed after thawing (T0 h) or after 6 hours at 4° C. in Plasmalyte/HSA5% (T6 h) (N=[…]) (D) NKR-2 T cells were produced in presence of increasing concentration of LY294002. […] After 48 hours, cell viability was assessed using trypan blue staining (N=3) and normalized for the number of cells at cryopreservation (E) tCD19 T cells were co-cultured with NKR-2 T cells generated from the same donor in presence of increasing concentrations of blocking Ab (from 0 (−) to 10 μg/ml). […] Following a 24 h incubation, supernatants were harvested and IFN-γ measured (N=3). […]"}, "[2]": {"test_system": "K562 or PANC-1 cells", "assay": "Cytokine release assay: IFN-γ ELISA after co-culture of NKR-2 T cells with cancer cells", "settings": "cells cultured with PI3K inhibitor (5 μM CAL101), compared with blocking NKG2D antibody", "protocol": "Fresh NKR-2 T cells and/or control tCD19 cells were incubated with K562 or PANC-1 cells at a ratio of 1:1 in X-Vivo 15 containing 5% HS. Following an incubation of 24 h supernatants were harvested and IFN-γ measured by ELISA (R&D Systems, SIF50) according to manufacturer's protocol. As a positive control cells were activated with PMA (Sigma-Aldrich, P8139-5MG) and ionomycin (Sigma-Aldrich, 10634-1MG). To assess the background levels of activation the cells received no stimulus.\nAntibody Inhibition Assay NKR-2 T cells were incubated with 1 μg/mL of NKG2D blocking antibody, isotype control or no antibody for 24 hours and subsequently NKR-2 T cells mediated secretion of IFN-γ measured. Similarly, NKR-2 cells were co-cultured with cancer cells in the presence of antibody and cytokine secretion measured."}, "[3]": {"test_system": "NKR-2 T cells", "assay": "Fold expansion / cell yield of NKR-2 (NKG2D CAR) T cells during manufacturing culture", "settings": "compared to cells without inhibition of NKG2D signaling", "protocol": "as §1, with “After cryopreservation, cells were thawed using a water bath and resuspended in Plasmalyte/Human Serum Albumin (HSA) 5%.” left out\nFIG. 9: NKR-2 T cells Ab blockade process adaptation restores CD4/CD8 ratio. […] PANC-1 viability was assessed every 2 hours by the IncuCyte S3 device. […]"}}, "data": [{"smiles": "O=c1cc(N2CCOCC2)oc2c(-c3ccccc3)cccc12", "note": "[LY294002]", "values": [{"measurement": "concentration at which NKG2D expression reaches the level of control tCD19 T cells", "setting": "[1]", "result": 10, "unit": "µM"}]}, {"smiles": "CC[C@H](Nc1ncnc2[nH]cnc12)c1nc2cccc(F)c2c(=O)n1-c1ccccc1", "note": "[Cal-101, idelalisib]", "values": [{"measurement": "IFN gamma secretion post co-culture with K562 cells", "setting": "[2]", "result": "produce more interferon"}]}, {"smiles": "Nc1cccc(-c2cc3c(Oc4cccc(O)c4)ncnc3[nH]2)c1", "note": "[TWS119]", "values": [{"measurement": "expansion with downstream inhibitors of the PI3K pathway", "setting": "[3]", "result": "expansion is increased"}]}]}
